In test [1] the target is T1, BACE1 (Homo sapiens, UniProt P56817).
T1 construct: endogenous in cells; host or cells: SH-SY5Y (ATCC CRL2266) stably expressing human APP695Wt
The test can be described thus: SH-SY5YAPP695Wt Whole Cell Assay. It counts as cell-based. The note with it: SH-SY5Y cells expressing human APP695Wt, 24 hours, conditioned media, mean ± standard deviation of the mean, n=3. On the procedure:
(§1) To assess selectivity of BACE1 over BACE2, the test compound is evaluated in FRET assays using specific substrates for BACE1 and BACE2 as described below. For in vitro enzymatic and cellular assays, the test compound is prepared in DMSO to make up a 10 mM stock solution. The stock solution is serially diluted in DMSO to obtain a ten-point dilution curve with final compound concentrations ranging from 10 μM to 0.05 nM in a 96-well round-bottom plate before conducting the in vitro enzymatic and whole cell assays.
The routine whole cell assay for the measurement of inhibition of BACE1 activity utilizes the human neuroblastoma cell line SH-SY5Y (ATCC Accession No. CRL2266) stably expressing a human APP695Wt cDNA. Cells are routinely used up to passage number 6 and then discarded.
SH-SY5YAPP695Wt cells are plated in 96 well tissue culture plates at 5.0×10^4 cells/well in 200 μL culture media (50% MEM/EBSS and Ham's F12, 1× each sodium pyruvate, non-essential amino acids and NaHCO3 containing 10% FBS). The following day, media is removed from the cells, fresh media added then incubated at 37° C. for 24 hours in the presenceabsence of test compound at the desired concentration range.
At the end of the incubation, conditioned media are analyzed for evidence of beta-secretase activity by analysis of Abeta peptides 1-40 and 1-42 by specific sandwich ELISAs. […]

For test [2], the target named is T2, human BACE2 (1-460):Fc (Homo sapiens, UniProt Q9Y5Z0).
T2 construct: made in house; host or cells: HEK293 (transient transfection, purified from conditioned media by Protein A)
T2 sequence (Q9Y5Z0 21-460): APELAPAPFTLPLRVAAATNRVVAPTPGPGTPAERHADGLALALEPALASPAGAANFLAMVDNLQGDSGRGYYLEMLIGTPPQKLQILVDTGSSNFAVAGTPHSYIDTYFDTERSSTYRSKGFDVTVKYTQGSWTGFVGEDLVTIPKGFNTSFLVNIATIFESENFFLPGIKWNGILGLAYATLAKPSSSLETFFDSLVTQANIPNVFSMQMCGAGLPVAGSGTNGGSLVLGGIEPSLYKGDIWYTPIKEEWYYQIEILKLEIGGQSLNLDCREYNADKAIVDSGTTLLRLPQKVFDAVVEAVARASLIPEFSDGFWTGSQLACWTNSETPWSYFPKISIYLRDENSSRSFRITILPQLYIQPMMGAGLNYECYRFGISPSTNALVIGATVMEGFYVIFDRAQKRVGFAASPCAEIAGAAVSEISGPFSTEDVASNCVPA
Nature of the test: BACE2 TMEM27 FRET Assay. It counts as biochemical. On the procedure: as §1
(§2) Human BACE1 (accession number: AF190725) and human BACE2 (accession number: AF 204944) are cloned from total brain cDNA by RT-PCR. The nucleotide sequences corresponding to amino acid sequences #1 to 460 are inserted into the cDNA encoding human IgG1 (Fc) polypeptide (Vassar et al., Science, 286, 735-742 (1999)). […]
(§3) Conditioned media of HEK293 cells transiently transfected with huBACE1:Fc or huBACE2:Fc cDNA are collected. […] The purity of the final product is assessed by electrophoresis in 4-20% Tris-Glycine SDS-PAGE. […]
Serial dilutions of test compound are prepared as described above. […] The RFU of the mixture at time 0 is recorded at excitation wavelength 430 nm and emission wavelength 535 nm. […] The RFU at the end of incubation is recorded with the same excitation and emission settings used at time 0. […]

The target in test [3] is T3, Human BACE1(1-460):Fc (Homo sapiens, UniProt P56817).
T3 construct: made in house; host or cells: HEK293 (transient transfection, purified from conditioned media by Protein A)
The test can be described thus: BACE1 FRET Assay. It counts as biochemical. Particulars: purified recombinant huBACE1:Fc, pH 4.6, mean ± standard deviation of the mean, n=13. On the procedure:
as §1, §2, §3
Serial dilutions of the test compound are prepared as described above. […] The RFU of the mixture at time 0 is recorded at excitation wavelength 355 nm and emission wavelength 460 nm, after brief mixing on a plate shaker. […] The RFU at the end of incubation is recorded with the same excitation and emission settings used at time 0. […]

Like-named read-outs stand apart in the source and are kept apart here.

Usually IC50 stands for the point on the concentration scale where inhibition reaches its midpoint.

T1 sequence (P56817 46-501): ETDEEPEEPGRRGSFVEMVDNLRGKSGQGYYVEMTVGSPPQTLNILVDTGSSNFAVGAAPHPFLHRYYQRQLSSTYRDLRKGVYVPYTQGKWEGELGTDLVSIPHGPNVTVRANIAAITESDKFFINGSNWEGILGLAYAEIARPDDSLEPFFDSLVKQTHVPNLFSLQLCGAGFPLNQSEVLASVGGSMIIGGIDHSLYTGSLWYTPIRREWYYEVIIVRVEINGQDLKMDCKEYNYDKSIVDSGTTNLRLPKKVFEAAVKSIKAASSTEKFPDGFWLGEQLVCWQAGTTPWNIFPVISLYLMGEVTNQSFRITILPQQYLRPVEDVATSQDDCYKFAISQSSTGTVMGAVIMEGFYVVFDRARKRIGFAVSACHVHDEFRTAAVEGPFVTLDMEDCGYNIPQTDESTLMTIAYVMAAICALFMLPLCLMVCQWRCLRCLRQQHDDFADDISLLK
T3 sequence (P56817 22-460): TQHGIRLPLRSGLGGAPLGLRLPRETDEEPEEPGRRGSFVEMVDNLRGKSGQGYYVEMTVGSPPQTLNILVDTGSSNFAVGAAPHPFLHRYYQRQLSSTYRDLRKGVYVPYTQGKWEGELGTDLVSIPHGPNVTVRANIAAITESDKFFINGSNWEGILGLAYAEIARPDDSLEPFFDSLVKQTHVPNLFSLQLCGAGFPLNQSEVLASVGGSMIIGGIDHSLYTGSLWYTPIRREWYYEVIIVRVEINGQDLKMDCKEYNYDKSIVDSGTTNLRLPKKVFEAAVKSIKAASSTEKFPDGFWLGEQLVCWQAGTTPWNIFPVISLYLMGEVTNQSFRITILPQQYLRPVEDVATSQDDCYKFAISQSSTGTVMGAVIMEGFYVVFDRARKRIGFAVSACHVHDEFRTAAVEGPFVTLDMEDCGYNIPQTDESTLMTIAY

Turning to `C[C@@]1(c2cc(NC(=O)c3nc4ccc(C#N)nc4s3)ccc2F)CO[C@@](C)(C(F)(F)F)C(N)=N1` [Example 1, N-[3-[(3R,6R)-5-Amino-3,6-dimethyl-6-(trifluoromethyl)-2H-1,4-oxazin-3-yl]-4-fluoro-phenyl]-5-cyano-thiazolo[5,4-b]pyridine-2-carboxamide], the IC50 in test [1] (read-out: IC50 for SH-SY5YAPP695Wt A-beta (1-40) ELISA) worked out at 1.88 nM; in test [1] (read-out: IC50 for SH-SY5YAPP695Wt A-beta (1-42) ELISA), 3.55 nM; in test [2] (TMEM27 LucY FRET assay, huBACE2:Fc, pH 4.6, mean ± standard deviation of the mean, n=6) it was 446 nM; in test [3] it was 8.18 nM. In test [2] (selectivity for BACE1 over BACE2), the “ratio of BACE1 (FRET IC50 enzyme assay) to BACE2 (TMEM27 LucY FRET assay)” value is listed as “approximately 50 fold”.
